Assay results reported in patent US9169509B2, “Topoisomerase 2b as a predictor of susceptibility to anthracycline-induced cardiotoxicity” (Board of Regents, The University of Texas System, priority 2013, dated 2015).

System: cardiomyocytes
Assay: Microarray gene expression profiling with Ingenuity pathway analysis of cardiomyocytes isolated from doxorubicin-treated mice
Type: in vivo, mouse
Experimental: Microarray-based Ingenuity pathway analysis was next used to study the effect of doxorubicin treatment in the Top2b^+/+ and Top2b^Δ/Δ heart in an unbiased way. Mice were treated with tamoxifen for 5 consecutive days. […] Cardiomyocytes were prepared from excised heart and mRNAs were extracted for microarray analysis. Ingenuity pathway analysis of microarray data based on expression changes (>1.5 fold) of 59,306 genes upon doxorubicin treatment identified perturbation (mainly activation) in p53 and β-adrenergic signaling pathways in Top2b^+/+ cardiomyocytes (left bars), but not in Top2bΔ/Δ cardiomyocytes (center bars) (FIG. 1a, FIG. 4a, and Table 1). No difference was found between untreated Top2b^+/+ and Top2b^Δ/Δ cardiomyocytes (right bars). Of particular interest is a 200 fold up-regulation of the transcript encoding p53DINP1, a p53-inducible gene that regulates apoptosis (Sohal et al., 2001) (FIG. 4b). There were also increases in the transcript of Apaf1, Bax, and Fas, genes important in the apoptosis pathway (Ogasawara et al., 1983) (FIG. 4c). Both p53DINP1, Apaf1, Bax, Mdm2, and Fas up-regulation were only observed in doxorubicin-treated Top2b^+/+, but not Top2b^Δ/Δ cardiomyocytes. This is consistent with the previous observation that doxorubicin and Top2b formed a DNA ternary cleavage complex to induce DNA double strand breaks (DSBs), leading to cell death (9).
To gain further insight into the pathogenesis of doxorubicin-induced cardiotoxicity, the transcriptome analysis was repeated 72 h following doxorubicin exposure. The Ingenuity pathway analysis of microarray data based on expression changes (>1.5 fold) of 59,306 genes upon doxorubicin treatment identified perturbation (mainly repression) in the mitochondria dysfunction and oxidative phosphorylation pathways in Top2b^+/+ cardiomyocytes (left bars), but not in Top2b^Δ/Δ cardiomyocytes (middle bars). No difference was found between untreated Top2b^+/+ and Top2b^Δ/Δ cardiomyocytes (right bars). There was a complete change in the ingenuity pathway profiles 72 h following doxorubicin exposure (FIGS. 1a,d). Early activation in the p53 pathway was replaced by mitochondrial dysfunction and oxidative phosphorylation pathways in the Top2b^+/+, but not Top2b^Δ/Δ cardiomyocytes (FIGS. 1a,d and Table 2). […] This was confirmed by qPCR of analysis of PGC-1α and PGC-1β transcripts (FIG. 1e). […] Consistent with the critical role exerted by PGC-1α and PGC-1β in mitochondrial biogenesis (Arany, Z. et al., 2006; Lai, L. et al., 2008), transcripts of key electron transport chains, such as Ndufa3 (NADH dehydrogenase 1 alpha subcomplex, 3, Complex1), Sdha (succinate dehydrogenase complex, subunit A, Complex II), and Atp5a (alpha subunit of Complex V) were decreased in the doxorubicin treated Top2b^+/+, but much less so in Top2b^Δ/Δ cardiomyocytes (FIG. 1e). […] Thus, in the presence of Top2b, doxorubicin caused decreases in transcripts of genes involved in the regulation of mitochondria biogenesis and function.
Total RNA was extracted from cardiomyocytes isolated from mouse heart 16 or 72 h after treatment with doxorubicin (25 mg/kg) or drug vehicle using TRIZOL reagent (Invitrogen), then purified with RNeasy Mini Kit (Qiagen) according to the manufacturer's instructions. Purified RNA samples were shipped on dry ice to Miltenyi Biotec Inc. for microarray analysis. Quality control of the sample RNA was performed by the company. Before hybridization, 100 ng of each sample RNA was used for T7-based amplification and Cy3 labeling. The hybridization procedure was performed according to the Agilent 60-mer oligo microarray processing protocol using the Agilent Gene Expression Hybridization Kit (Agilent Technologies). After an overnight hybridization (65° C.) the microarrays were washed and scanned using Agilent Microarray Scanner System (Agilent Technologies).

[1] = Top2b+/+ cardiomyocytes, 72 hrs after doxorubicin 25 mg/kg
[2] = wild type hearts, 72 h after doxorubicin, not in Top2b deleted

## COc1cccc2c1C(=O)c1c(O)c3c(c(O)c1C2=O)C[C@@](O)(C(=O)CO)C[C@@H]3O[C@H]1C[C@H](N)[C@H](O)[C@H](C)O1 [doxorubicin]
Top2b+/+ cardiomyocytes, 16 hrs after doxorubicin 25 mg/kg i.p.
  Up-regulated genes associated with p53 signaling pathway (expression change, genes listed in Table 1): Up-regulated genes (>1.5 fold) associated with p53 signaling pathway
[1]
  Down-regulated genes associated with mitochondrial dysfunction and oxidative phosphorylation pathways (genes listed in Table 2): Down-regulated Genes (>1.5 fold)
  Up-regulated genes associated with mitochondrial dysfunction and oxidative phosphorylation pathways (genes listed in Table 2): Up-regulatedGenes (>1.5 fold)
Top2bΔ/Δ cardiomyocytes, 16 hrs after doxorubicin 25 mg/kg i.p.
  Expression change of the genes identified in the p53 pathway: TP53INP1 is also called p53DINP1. The list was generated by Ingenuity software, and none of the genes identified in the p53 pathway had an expression change that reached 1.5 fold in Top2b^Δ/Δ cardiomyocytes.
Top2bΔ/Δ cardiomyocytes, 72 hrs after doxorubicin 25 mg/kg
  Expression change of the genes identified in the mitochondrial dysfunction and oxidative phosphorylation pathways: The list was generated by Ingenuity software, and none of the genes identified in the 2 pathways had an expression change that reached 1.5 fold in Top2b^Δ/Δ cardiomyocytes.
[2]
  PGC-1α downregulation: 1.5 fold
  PGC-1β downregulation: 1.5 fold
